System: THP1 cells (LPS induced TNF release)
Experiment: Lipopolysaccharide-Activated THP1 Cell TNF Production Assay
Format: cell-based
Conditions: Homo sapiens, THP-1; THP1 cells, bacterial LPS, secreted TNF-α after 3 h at 37° C.; read-out: IC50 values in the THP1 cell assay (LPS induced TNF release)
Method: Lipopolysaccharide-Activated THP1 Cell TNF Production Assay
THP1 cells are resuspended in fresh THP1 media (RPMI 1640, 10% heat-inactivated FBS, 1×PGS, 1×NEAA, plus 30 μM βME) at a concentration of 1E6/mL. One hundred microliters of cells per well are plated in a polystyrene 96-well tissue culture. One microgram per mL of bacterial LPS is prepared in THP1 media and is transferred to the wells. Test compounds are dissolved in 100% DMSO and are serially diluted 3 fold in a polypropylene 96-well microtiter plate (drug plate). HI control and LO control wells contain only DMSO. One microliter of test compound from the drug plate followed by 10 μL of LPS are transferred to the cell plate. The treated cells are induced to synthesize and secrete TNF-α at 37° C. for 3 h. Forty microliters of conditioned media are transferred to a 96-well polypropylene plate containing 110 μL of ECL buffer (50 mM Tris-HCl pH 8.0, 100 mM NaCl, 0.05% Tween 20, 0.05% NaN3 and 1% FBS) supplemented with 0.44 nM MAB610 monoclonal Ab (R&D Systems), 0.34 nM ruthenylated AF210NA polyclonal Ab (R&D Systems) and 44 μg/mL sheep anti-mouse M280 Dynabeads (Dynal). After a 2 h incubation at RT with shaking, the reaction is read on the ECL M8 Instrument (IGEN Inc.). A low voltage is applied to the ruthenylated TNF-α immune complexes, which in the presence of TPA (the active component in Origlo), results in a cyclical redox reaction generating light at […]. The amount of secreted TNF-α in the presence of compound compared with that in the presence of DMSO vehicle alone (HI control) is calculated using the formula: % control (POC)=(cpd−average LO)/(average HI−average LO)*100. Data (consisting of POC and inhibitor concentration in μM) is fitted to a 4-parameter equation (y=A+((B−A)/(1+((×/C)ôD))), where A is the minimum y (POC) value, B is the maximum y (POC), C is the x (cpd concentration) at the point of inflection and D is the slope factor) using a Levenburg-Marquardt non-linear regression algorithm.

IC50	SMILES
≤ 20 µM	CN(c1cc(-c2ccccc2)c(=O)n(C)c1)c1ccnc(NCCc2ccccc2)n1 [Example 176, 1-Methyl-5-(methyl(2-(phenethylamino)pyrimidin-4-yl)amino)-3-phenylpyridin-2(1H)-one]
≤ 20 µM	CN(c1ccnc(NCCc2cccnc2)n1)c1nc(-c2ccccc2)ncc1C(N)=O [Example 64, 4-(Methyl(2-(2-(pyridin-3-yl)ethylamino)pyrimidin-4-yl)amino)-2-phenyl-pyrimidine-5-carboxamide]
≤ 20 µM	CC(C)[C@H](CCN1CCOCC1)Nc1nccc(N(C)c2ccnc(-c3ccccc3)n2)n1 [Example 62, (S)-N^4-Methyl-N^2-(4-methyl-1-morpholinopentan-3-yl)-N^4-(2-phenylpyrimidin-4-yl)pyrimidine-2,4-diamine]
≤ 20 µM	Cc1cc(N(C)c2ccnc(-c3ccccc3)n2)nc(N[C@@H](C)Cc2cccc(CNC(=O)[C@H](C)N)c2)n1 [Example 35, (S)-N-((S)-3-((S)-2-(4-Methyl-6-(methyl(2-phenylpyrimidin-4-yl)amino)pyrimidin-2-ylamino)propyl)benzyl)-2-aminopropanamide]
≤ 20 µM	CN(c1ccnc(N[C@@H](CCN2CCOCC2)Cc2ccccc2)n1)c1ccnc(-c2ccccc2)n1 [Example 54, (R)-N^4-Methyl-N^2-(4-morpholino-1-phenylbutan-2-yl)-N^4-(2-phenylpyrimidin-4-yl)pyrimidine-2,4-diamine]
≤ 20 µM	CN(c1cccc(-c2cccs2)n1)c1ccnc(NCCc2ccccc2)n1 [Example 150, N^4-Methyl-N^2-phenethyl-N^4-(6-(thiophen-2-yl)pyridin-2-yl)pyrimidine-2,4-diamine]
≤ 20 µM	CN(c1ccnc(NCCc2ccccc2Cl)n1)c1nccc(C(C)(C)C)n1 [Example 55, N^2-(2-Chlorophenethyl)-N^4-(4-tert-butylpyrimidin-2-yl)-N^4-methylpyrimidine-2,4-diamine]
≤ 20 µM	CN(c1cnc(OCc2ccccc2)c(-c2ccccc2)c1)c1ccnc(NC2CCNCC2)n1 [N^4-(6-(Benzyloxy)-5-phenylpyridin-3-yl)-N^4-methyl-N^2-(piperidin-4-yl)-pyrimidine-2,4-diamine]
≤ 20 µM	CN(c1ccnc(N[C@H](Cc2ccccc2)C(N)=O)n1)c1ccnc(-c2ccccc2)n1 [Example 39]
≤ 20 µM	CN(c1ccnc(N[C@@H](CNCCN)Cc2ccccc2)n1)c1ccnc(-c2ccccc2)n1 [Example 50, (R)-N^2-(3-(2-Aminoethylamino)-1-phenylpropan-2-yl)-N^4-methyl-N^4-(2-phenyl-pyrimidin-4-yl)pyrimidine-2,4-diamine]
≤ 20 µM	C[C@H](N)C1CCCC(CCNc2nccc(N(C)c3ccnc(-c4ccccc4)n3)n2)C1 (stereo partly drawn) [Example 12, N^2-(2-(3-((S)-1-Aminoethyl)cyclohexyl)ethyl)-N^4-methyl-N^4-(2-phenylpyrimidin-4-yl)pyrimidine-2,4-diamine]
≤ 20 µM	CN(c1ccnc(NC[C@@H](O)c2ccccc2)n1)c1ccnc(-c2ccccc2)n1 [Example 111, (S)-2-(4-(Methyl(2-phenylpyrimidin-4-yl)amino)pyrimidin-2-ylamino)-1-phenyl-ethanol]
≤ 20 µM	C[C@@H](Cc1cccc(CN)c1)Nc1nccc(N(C)c2ccnc(-c3ccccc3F)n2)n1 [Example 83, N^2-((S)-1-(3-(Aminomethyl)phenyl)propan-2-yl)-N^4-(2-(2-fluorophenyl)pyrimidin-4-yl)-N^4-methylpyrimidine-2,4-diamine]
≤ 20 µM	CCOC(=O)c1cnc(-c2ccccc2)nc1Nc1ccnc(NCCc2ccccn2)n1 [Example 98, Ethyl 2-phenyl-4-(2-(2-(pyridin-2-yl)ethylamino)pyrimidin-4-ylamino)pyrimidine-5-carboxylate]
≤ 20 µM	CN(c1cccc(-c2ccc(C(F)(F)F)cc2)n1)c1ccnc(NCCc2ccccc2)n1 [Example 128, N^4-Methyl-N^2-phenethyl-N^4-(6-(4-(trifluoromethyl)phenyl)pyridin-2-yl)-pyrimidine-2,4-diamine]
≤ 20 µM	CSc1nccc(Nc2cc(-c3ccccc3)c(=O)n(C)c2)n1 [1-methyl-5-((2-(methylsulfanyl)-4-pyrimidinyl)amino)-3-phenyl-2(1H)-pyridinone]

IC50	SMILES
≤ 20 µM	CN(c1ccnc(-c2ccccc2)n1)c1ccnc(N2CC[C@H]2Cc2ccccc2)n1 [N-methyl-2-phenyl-N-(2-((2R)-2-(phenylmethyl)-1-azetidinyl)-4-pyrimidinyl)-4-pyrimidinamine]
≤ 20 µM	CN(c1cc(-c2ccccc2)c(=O)n(C)c1)c1ccnc(N[C@@H](CC(=O)O)Cc2ccccc2)n1 [(3R)-3-((4-(methyl(1-methyl-6-oxo-5-phenyl-1,6-dihydro-3-pyridinyl)amino)-2-pyrimidinyl)amino)-4-phenylbutanoic acid]
≤ 20 µM	CN(c1ccnc(NCCc2cccnc2)n1)c1ccnc(-c2ccccc2C(F)(F)F)n1 [Example 75, N^4-Methyl-N^2-(2-(pyridin-3-yl)ethyl)-N^4-(2-(2-(trifluoromethyl)phenyl)pyrimidin-4-yl)pyrimidine-2,4-diamine]
≤ 20 µM	C[C@@H](Cc1cccc(C2(N)CC2)c1)Nc1nccc(N(C)c2ccnc(-c3ccccc3)n2)n1 [Example 7, (S)-N^2-(1-(3-(1-Aminocyclopropyl)phenyl)propan-2-yl)-N^4-methyl-N^4-(2-phenylpyrimidin-4-yl)pyrimidine-2,4-diamine]
≤ 20 µM	CN(c1ccnc(NCCc2cccnc2)n1)c1ccnc(-c2cc(F)ccc2F)n1 [Example 78, N^4-(2-(2,5-Difluorophenyl)pyrimidin-4-yl)-N^4-methyl-N^2-(2-(pyridin-3-yl)ethyl)-pyrimidine-2,4-diamine]
≤ 20 µM	C[C@H](N)c1cccc(C[C@H](C)Nc2nccc(N(C)c3c[nH]c(=O)c(-c4ccccc4)c3)n2)c1 [Example 170, 5-((2-((S)-1-(3-((S)-1-Aminoethyl)phenyl)propan-2-ylamino)pyrimidin-4-yl)-(methyl)amino)-3-phenylpyridin-2(1H)-one]
≤ 20 µM	C[C@H](NC(=O)OC(C)(C)C)c1ccc(CCNc2nccc(N(C)c3ccnc(-c4ccccc4)n3)n2)cc1 [Example 4, (S)-tert-Butyl 1-(4-(2-(4-(methyl(2-phenylpyrimidin-4-yl)amino)pyrimidin-2-ylamino)ethyl)phenyl)ethyl carbamate]
≤ 20 µM	Cn1c(Nc2ccnc(NCCc3ccccc3Cl)n2)cc(-c2ccccc2)cc1=O [Example 160, 6-(2-(2-Chlorophenethylamino)pyrimidin-4-ylamino)-1-methyl-4-phenylpyridin-2(1H)-one]
≤ 20 µM	CN(c1cccc(C2=CCCCC2)n1)c1ccnc(NCCc2ccccc2)n1 [Example 148, N^4-(6-cyclohexenylpyridin-2-yl)-N^4-methyl-N^2-phenethylpyrimidine-2,4-diamine]
≤ 20 µM	C[C@@H](Cc1cccc(CN)c1)Nc1nccc(N(C)c2c[nH]c(=O)c(-c3ccccc3)c2)n1 [Example 168, (S)-5-((2-(1-(3-(Aminomethyl)phenyl)propan-2-ylamino)pyrimidin-4-yl)(methyl)-amino)-3-phenylpyridin-2(1H)-one]
≤ 20 µM	CC(C)NCC[C@@H](Cc1ccccc1)Nc1nccc(N(C)c2ccnc(-c3ccccc3)n2)n1 [Example 58, (R)-N^2-(4-(Isopropylamino)-1-phenylbutan-2-yl)-N^4-methyl-N^4-(2-phenylpyrimidin-4-yl)pyrimidine-2,4-diamine]
≤ 20 µM	Cc1cccc(-c2cccc(N(C)c3ccnc(NCCc4ccccc4)n3)n2)c1 [Example 138, N^4-Methyl-N^2-phenethyl-N^4-(6-m-tolylpyridin-2-yl)-pyrimidine-2,4-diamine]
≤ 20 µM	COc1nc(-c2ccccc2)nc(N(C)c2ccnc(N[C@@H](C)Cc3cccc(CN)c3)n2)n1 [Example 121, (S)-N^2-(1-(3-(Aminomethyl)phenyl)propan-2-yl)-N^4-(4-methoxy-6-phenyl-1,3,5-triazin-2-yl)-N^4-methylpyrimidine-2,4-diamine]
≤ 20 µM	Cc1ccccc1-c1cccc(N(C)c2ccnc(NCCc3ccccc3)n2)n1 [Example 139, N^4-Methyl-N^2-phenethyl-N^4-(6-o-tolylpyridin-2-yl)-pyrimidine-2,4-diamine]
≤ 20 µM	CN(c1cc(-c2ccccc2)c(=O)n(C)c1)c1ccnc(NC2CCNCC2)n1 [Example 174, 1-Methyl-5-(methyl(2-(piperidin-4-ylamino)pyrimidin-4-yl)amino)-3-phenylpyridin-2(1H)-one]
≤ 20 µM	CN(c1ccnc(N[C@@H](CCO)c2ccccc2)n1)c1ccnc(-c2ccccc2)n1 [Example 30, (S)-3-(4-(Methyl(2-phenylpyrimidin-4-yl)amino)pyrimidin-2-ylamino)-3-phenylpropan-1-ol]

— patent US20060069110A1, “Substituted heterocyclic compounds and methods of use” (priority 2004, published 2006)
